Data from US20240342138A1, “MICROTUBULE TARGETING AGENTS” (BPGbio, Inc., priority 2023, published 2024).

Tests used:
[1] = system: Triple Negative Breast Cancer patient-derived organoids CTG-1520, CTG-0896, CTG-1017; assay: Viability of PDO models of taxane resistance (CellTiter-Glo, 5 days); type: cell-based, human
Protocol: FIGS. 9A and 9B show potency of Compound 1 in patient-derived organoid (PDO) models of taxane resistance. Patient-derived organoids were treated with Compound 1, paclitaxel or controls (0.1% DMSO, positive control—10% DMSO) for 5 days. Viability was assessed using the CellTiter-Glo® assay. IC50 and maximal (max) inhibition values were extrapolated from the viability curves. A) Model overview and dose response curves to Compound 1 and paclitaxel. B) Summary of CellTiter-Glo results in all three models tested. Compiled data of N=4 replicates.
CTG-1520 and CTG-0896 were derived from Triple Negative Breast Cancer (TNBC) patients post-treatment, and progression on a taxane-based therapy and the models' resistance to paclitaxel was confirmed by testing in vivo PDX (Patient-derived xenograft) tumor growth. […] Compound 1 and paclitaxel were tested head-to-head in each model in a dose-curve setting. 10% DMSO was used as the positive control for induction of 100% cell cytotoxicity.

COLO205 cells = assay: In vitro potency, ATPlite 1Step (NTRC Oncolines); type: cell-based; conditions: Homo sapiens, COLO 205
Protocol: FIG. 11A-11E show the efficacy of Compound 1 in a colorectal cancer xenograft model (COLO205). A) In vitro potency of Compound 1 in COLO205 cells as evaluated by ATPlite 1Step™ Perkin Elmer (performed by NTRC Oncolines). B) COLO205 cells were implanted subcutaneously in nude mice and tumors were allowed to grow to a volume of 210 mm3 followed by randomization of animals into three (3) groups (vehicle control, 75 mg/kg, 150 mg/kg Compound 1) with 12 animals per group. A Compound 1 solid dispersion was prepared prior to each dosing and administered by oral gavage two times a day (BID). Mean tumor volume of each group over time and the growth of tumor in each individual animal was graphed. For each individual animal of […] group TGI (%) was calculated based on the tumor growth inhibition of individual tumor at each given day of the study compared to the average of the group for that given day of the study. P-values were calculated using two-tailed distribution and two-sample equal variance (homoscedastic) for each group treated with Compound 1 for each given day of the study in reference to vehicle control. […] The level of two biomarkers, pHH3 and CCNB1 in each tissue was measured and graphed as the Min-to-Max plot and scatter plot of the level of each biomarker. […] E) Body weight of each individual animal was measured on each day of the study and graphed using Graphpad Prism. […]

COLO205 tumors = assay: Colorectal cancer xenograft model; type: in vivo, nude mice
Protocol: FIG. 11A-11E show the efficacy of Compound 1 in a colorectal cancer xenograft model (COLO205). A) In vitro potency of Compound 1 in COLO205 cells as evaluated by ATPlite 1Step™ Perkin Elmer (performed by NTRC Oncolines). B) COLO205 cells were implanted subcutaneously in nude mice and tumors were allowed to grow to a volume of 210 mm3 followed by randomization of animals into three (3) groups (vehicle control, 75 mg/kg, 150 mg/kg Compound 1) with 12 animals per group. A Compound 1 solid dispersion was prepared prior to each dosing and administered by oral gavage two times a day (BID). Mean tumor volume of each group over time and the growth of tumor in each individual animal was graphed. For each individual animal of […] group TGI (%) was calculated based on the tumor growth inhibition of individual tumor at each given day of the study compared to the average of the group for that given day of the study. P-values were calculated using two-tailed distribution and two-sample equal variance (homoscedastic) for each group treated with Compound 1 for each given day of the study in reference to vehicle control. NS p>0.05; *p≤0.05; **p≤0.01; ***p p≤0.001; **** p≤0.0001. C) Plasma and tumor tissues from vehicle (n=11), 75 mg/kg (n=12), and 150 mg/kg (n=11) groups were harvested at the end of the study. The concentration of Compound 1 in the plasma or tumor tissue was plotted as a column plot (Average t SEM) or Scatter Plot with Median. D) Tumor tissues from vehicle (n=11), 75 mg/kg (n=12) and 150 mg/kg (n=11) groups were harvested at the end of the study when each animal was sacrificed. The level of two biomarkers, pHH3 and CCNB1 in each tissue was measured and graphed as the Min-to-Max plot and scatter plot of the level of each biomarker. The line in the scatter plot indicates the group mean. E) Body weight of each individual animal was measured on each day of the study and graphed using Graphpad Prism.
Anti-tumor efficacy of Compound 1 was evaluated against three (3) different preclinical oncology mice models of colorectal cancer, prostate cancer, and lung adenocarcinoma (see Table 5 below). For this purpose, an oral formulation of Compound 1 was used.
COLO205 is a colorectal adenocarcinoma (Dukes' Type D) cell line of epithelial origin isolated from human colon. COLO205 is a model that is well validated in the cancer field for in vivo efficacy evaluation of oncology therapeutics. Nude mice were implanted subcutaneously with COLO205 cells and tumors were grown to an average tumor volume of 113 mm^3 followed by randomization into three (3) groups consisting of vehicle control, 75 mg/kg and 150 mg/kg Compound 1 (12 animals per group). A Compound 1 solid dispersion was administered by oral gavage two times a day (BID). Originally, the study was planned for 28 days of dosing; however, several animals left the study after 17 days of dosing due to tumor size reaching the limit of 2000 mm^3. Therefore, only the data for the first 17 days of dosing were used for the analysis. Additionally, one animal from vehicle group and one animal from 150 mg/kg group left the study prior to day 17 and were therefore removed from the analysis. The percentage of tumor growth inhibition (TGI %) was calculated for each individual animal.

A-172 cells = assay: In vitro potency in glioblastoma cells, ATPlite 1Step (NTRC Oncolines); type: cell-based; conditions: Homo sapiens, FIG. 14A, read-out: In vitro potency (anti-cancer activity)
Description: (§1) FIG. 14A-14E show the efficacy of Compound 1 in glioblastoma cell lines in vitro and in a glioblastoma rat model (C6). A) In vitro potency of Compound 1 in four different glioblastoma cell lines as evaluated by Realtime-Glo™ assay (C6, and U87 cells) or ATPlite 1Step™ Perkin Elmer (performed by NTRC Oncolines; T98G and A-172 cells). B) Study design overview: C6 rat glioma cells (3×10^5) were implanted into the right entorhinal cortex/subiculum region of male Sprague Dawley rats and tumor burden was assessed 14 days post inoculation using MRI and animals randomized into […] (4) groups (vehicle control, 5 mg/kg, 10 mg/kg, and 20 mg/kg Compound 1) with 4 animals per group. […] C) Body weights were measured every two days. […]
(§2) Glioblastoma (GBM) is the most common and highly malignant form of primary brain tumor with a poor prognosis despite advances in treatments. […] Accordingly, the in vitro potency of Compound 1 was examined in four different glioblastoma cell lines as evaluated by Realtime-Glo™ assay (C6, and U87 cells) or ATPlite 1Step™ Perkin Elmer (performed by NTRC Oncolines; T98G and A-172 cells). […] Therefore, the in vivo tumor activity of Compound 1 was next assessed in Sprague Dawley rats implanted with C6 rat glioma cells into the right entorhinal cortex/subiculum region (AP: −7 mm; ML: 4.5 mm, DV: 5 mm). […]

T98G cells = assay: as above; type: cell-based; conditions: Homo sapiens, FIG. 14A, read-out: In vitro potency (anti-cancer activity)
Description: as §1, §2

COc1ccccc1-c1nc(CNC(=O)c2ccccc2OC(F)F)n[nH]1 [Compound 1, 2-(difluoromethoxy)-N-[[5-(2-methoxyphenyl)-1H-1,2,4-triazol-3-yl]methyl]benzamide]
Potency in PDO models ([1]; CTG-1520, CTG-0896, CTG-1017, FIG. 9): potent in all three (3) PDO models tested | Retention of potency in matched PDO models ([1]; same patient before (CTG-1017) and after (CTG-1520) taxane-based chemotherapy): retained potency | IC50 (COLO205 cells; COLO205): 67 nM | Emax (COLO205 cells; COLO205, in vitro, read-out: Maximum effect (%)): 95% | TGI (%) (COLO205 tumors; 75 mg/kg BID oral, day 17): 20.13% | Maximum TGI (%), end of the study (COLO205 tumors; 150 mg/kg BID oral, day 17): 35.38% | Body weight (COLO205 tumors; 150 mg/kg group, FIG. 11E): no significant body weight change by the end of the study | Level of Compound 1 in plasma and tumor tissue (COLO205 tumors; 75 vs 150 mg/kg, end of study, FIG. 11C): dose-dependent elevation | cyclin B1 and phospho Histone H3 (pHH3) in tumor tissue (COLO205 tumors; markers of M phase arrest, FIG. 11D): increase | IC50 (A-172 cells): 48 nM | IC50 (T98G cells): 39 nM
